Measured values reported in US9044465B2, “Use of analgesic potentiating compounds to potentiate the analgesic properties of an analgesic compound” (priority 2008, dated 2015).

Legend:
[1] = test system: patients with acute sore throat and pharyngitis; test: Throat Soreness Scale (TSS), randomized double-blind placebo-controlled single-dose study; format: in vivo, human; settings: single oral dose; for reduction in throat soreness (TSS) compared to placebo over 6 hours: 9 patients per group, vs placebo; for time from which TSS scores separated/differed from placebo: throat soreness difference at individual time points
Procedure: (§1) A total of 99 patients who met pre-specified inclusion and exclusion criteria, including moderate to severe throat pain intensity, as measured by a score≧7 on the Throat Soreness Scale (TSS), were admitted to the study.
(§2) There were 9 patients randomly assigned to each treatment group.
They were discharged home for hourly assessments up to 6 hours post-dose. Patients were allowed alternative analgesic medication at any time during the study.
(§3) The Throat Soreness Scale (TSS), Swollen Throat Scale (SwoTS), Difficulty Swallowing Scale (DSS), Difficulty Talking Scale (DTS), and other Quality-of-Pain Scales were completed at Baseline (immediately pre-treatment). Each of these measurement instruments is a 0-10 ordinal scale (see TEST PROTOCOL below).
(§4) After administration of the assigned study medication, patients completed (1) the Throat Soreness Scale, (2) the Swollen Throat Scale, (3) the Difficulty Swallowing Scale, and (4) the Improvement Assessment (IA) every 15 minutes up to 2 hours. Measurements on the Difficulty Talking Scale and the Quality-of-Pain Scales were obtained after these four assessments at 60 minutes and at 2 hours after treatment.
(§5) After these 2nd hour assessments, patients were discharged from the clinic with a Diary for entering responses on the Throat Soreness Scale, Swollen Throat Scale, Difficulty Swallowing Scale, Difficulty Talking Scale, and Improvement Assessment at 3, 4, 5, and 6 hours. After the 6 hour assessments, patients completed the Quality-of-Pain Scales.
The patient will be asked to evaluate his/her throat soreness using a 0-to-10 ordinal scale at Baseline as well as at 15, 30, 45, 60, 75, 90, 105 and 120 min and then hourly through 6 hours. The patient will be requested to swallow and instructed:
The primary endpoint variable is the Summed Difference in Throat Soreness at 6 hours, which is based on the Throat Soreness Scale. The patient will be asked to evaluate his/her throat soreness, using a 0-to-10 ordinal scale at baseline and at 15, 30, 45, 60, 75, 90, 105 minutes and 2, 3, 4, 5, and 6 hours. At each time point post-dose, a difference is calculated between the throat soreness at that time and the patient's baseline throat soreness. The time-weighted Summed Difference in Throat Soreness at each time point is calculated as the sum of the differences from baseline until that time point.

[2] = test system: patients with acute sore throat and pharyngitis; test: Improvement Assessment (IA), same study; format: in vivo, human; settings: single oral dose; for patients who achieved at least some improvement within 30 minutes (IA): first 30 minutes, placebo 1/9; for time from which IA scores separated/differed from placebo: improvement at individual time points; for patients who achieved at least 50% improvement over 6 hours (IA): over the 6-hour treatment period, placebo 2/9; for patients who achieved at least some improvement within 1 hour (IA): placebo 4/9
From the text: as §1, §2, §4, §5
The patient will grade the improvement of his/her throat at 15, 30, 45, 60, 75, 90, 105, and 120 minutes, and at 3, 4, 5, and 6 hours post dose using a 5-category transitional scale. The patient will be instructed:
“Considering how your throat felt before you took the study medicine, circle the response that best describes how your throat is now.”
• Grading • no improvement • some improvement • 50% improvement • definite improvement • 100% improvement Data from this scale will be transcribed onto the appropriate Summary Data CRFs. Definite Improvement Level (DIL)

[3] = test system: patients with acute sore throat and pharyngitis; test: Difficulty Swallowing Scale (DSS), same study; format: in vivo, human; settings: single oral dose, vs placebo
From the text: as §1, §2, §3, §4
as §5, with “Scales. […]” for “Scales.”

[4] = test system: patients with acute sore throat and pharyngitis; test: Definite Improvement Level (DIL), same study; settings: single oral dose, placebo 11.1%; for patients who achieved their own Definite Improvement Level on the TSS: Throat Soreness Scale
Procedure: A randomized, double-blind, placebo-controlled single-dose study was performed. In order to be eligible for the study, patients were required to have a history of an acute sore throat and physical evidence of pharyngitis. A total of 99 patients who met pre-specified inclusion and exclusion criteria, including moderate to severe throat pain intensity, as measured by a score≧7 on the Throat Soreness Scale (TSS), were admitted to the study.
At this visit they were shown each baseline rating scale and asked to indicate which level represented “definite improvement” to them (Definite Improvement Level), the Diary was reviewed for completeness by the Study Nurse, and ongoing evaluation and treatment were provided, if necessary, per standard clinic procedures.
After the patient is shown his/her completed Baseline Throat Soreness Scale, the Study Nurse will point to the number which the patient marked at Baseline and instruct the patient:
“Starting at this level with your sore throat, at and below which number means definite improvement to you?”
Next, the Study Nurse will separately show the patient his/her Baseline Difficulty Swallowing Scale, Swollen Throat Scale, Difficulty Talking Scale, and each of the 10 Quality-of-Pain Scales, with the same instructions for each scale.
Analyses were performed on all 99 patients (“intent-to-treat analyses”). […] Definite Improvement Level comparisons were performed using Fisher's Exact Test. Correlations between each new rating scale and the TSS were performed using Spearman Rank Correlation.

[5] = test system: patients with acute sore throat and pharyngitis; test: Difficulty Talking Scale (DTS), same study; format: in vivo, human; settings: single oral dose, vs placebo
From the text: as §1, §2, §3, §4
as §5, with “Scales. […]” for “Scales.”

[6] = test system: patients with acute sore throat and pharyngitis; test: Throat Function Index (TFI: swallowing and talking), same study; format: in vivo, human; settings: single oral dose, vs placebo
From the text: as §1, §2
**Difficulty Swallowing and Difficulty Talking comprise the 20-point Throat Function Index.

[7] = test system: patients with acute sore throat and pharyngitis; test: Swollen Throat Scale (SwoTS), same study; format: in vivo, human; settings: single oral dose, vs placebo
From the text: as §1, §2, §3, §4
as §5, with “Scales. […]” for “Scales.”

[8] = test system: patients with acute sore throat and pharyngitis; test: Quality of Pain Index (QPI, 12 qualities of throat pain), same study; format: in vivo, human; settings: single oral dose, vs placebo
From the text: as §1, §2, §4, §5
The patient will be instructed to swallow and instructed: […]

| Compound | reduction in throat soreness (TSS) compared to placebo over 6 hours [1] | time from which TSS scores separated/differed from placebo [1] [min] | patients who achieved at least some improvement within 30 minutes (IA) [2] | time from which IA scores separated/differed from placebo [2] [min] | patients who achieved at least 50% improvement over 6 hours (IA) [2] | patients who achieved at least some improvement within 1 hour (IA) [2] | reduction in difficulty swallowing (DSS) compared with placebo over 6 hours [3] | patients who achieved their own Definite Improvement Level on the TSS [4] [%] | patients who achieved their own Definite Improvement Level on the "It hurts" Quality-of-Pain Scale [4] [%] | patients who achieved their own Definite Improvement Level on the Difficulty Swallowing Scale [4] [%] | reduction in difficulty talking (DTS) compared with placebo over 6 hours [5] | reduction in the TFI compared with placebo over 6 hours [6] | reduction in throat swelling (SwoTS) compared with placebo over 6 hours [7] | reduction in the QPI compared with placebo over 6 hours [8] |
| --- | --- | --- | --- | --- | --- | --- | --- | --- | --- | --- | --- | --- | --- | --- |
| CC(C)Cc1ccc(C(C)C(=O)O)cc1 (centres unmarked) [ibuprofen] | trend | 30 | 6/9 | 30 | 4/9 | 9/9 | greater reduction in difficulty swallowing compared with placebo | 44.4 | 33.3 | 44.4 |  |  |  |  |
| Cc1ccc(-c2cc(C(F)(F)F)nn2-c2ccc(S(N)(=O)=O)cc2)cc1 [celecoxib] |  | 30 | 3/9 | 45 | 8/9 | 7/9 |  | 77.7 | 55.6 | 66.7 |  |  |  |  |
| COc1ccc2cc([C@H](C)C(=O)O)ccc2c1 [naproxen, naproxen sodium] | differentiated from placebo | 30 | 4/9 | 45 | 4/9 | 7/9 |  | 22.2 | 33.3 | 33.3 |  |  |  |  |
| CC(=O)Nc1ccc(O)cc1 [acetaminophen] | significantly greater reduction in throat soreness compared to placebo | 15 | 8/9 | 30 | 7/9 | 9/9 | significant difference | 44.4 | 55.6 | 55.6 | significant | significantly greater reduction in the TFI | significantly differentiated from placebo | significantly differentiated from placebo |
